This passage reports IC50 and inhibition of growth results from ChEMBL document CHEMBL4396916, “Novel potent substituted 4-amino-2-thiopyrimidines as dual VEGFR-2 and BRAF kinase inhibitors” (Eur J Med Chem, 2019).

The target in assay [1] is Serine/threonine-protein kinase B-raf (Homo sapiens, UniProt P15056). The assay can be described thus: Inhibition of human wild type BRAF by Kinase-Glo luminescence assay.
Assay [2] addresses Mast/stem cell growth factor receptor Kit (Homo sapiens, UniProt P10721). The assay is described as follows: Inhibition of c-kit (unknown origin).
For a further assay, the system named is HL-60(TB). The assay is described as follows: Growth inhibition of human HL-60(TB) cells at 10 uM incubated for 48 hrs by sulforhodamine B assay relative to control. In kind it is functional. The settings on record: HL-60, 48 h, read-out: GI. (In SRB staining, fixed cells bind dye roughly in proportion to their protein.)
The next assay deals with K562. The assay is described as follows: Growth inhibition of human K562 cells at 10 uM incubated for 48 hrs by sulforhodamine B assay relative to control. The following applies: K562, 48 h, read-out: GI. In kind it is functional.
The next assay has as its system MOLT-4. The assay is described as follows: Growth inhibition of human MOLT4 cells at 10 uM incubated for 48 hrs by sulforhodamine B assay relative to control. In kind it is functional. The settings on record: MOLT-4, 48 h, read-out: GI.
Another assay relates to SR. The assay is described as follows: Growth inhibition of human SR cells at 10 uM incubated for 48 hrs by sulforhodamine B assay relative to control. In kind it is functional. The following applies: read-out: GI.
A further assay concerns A549. The assay is described as follows: Growth inhibition of human A549/ATCC cells at 10 uM incubated for 48 hrs by sulforhodamine B assay relative to control. The settings on record: A549, 48 h, read-out: GI. Format: functional.
The next assay concerns HOP-62. The assay is described as follows: Growth inhibition of human HOP62 cells at 10 uM incubated for 48 hrs by sulforhodamine B assay relative to control. In kind it is functional. The settings on record: HOP-62, 48 h, read-out: GI.
A further assay has as its system NCI-H23. The assay is described as follows: Growth inhibition of human NCI-H23 cells at 10 uM incubated for 48 hrs by sulforhodamine B assay relative to control. The following applies: NCI-H23, 48 h, read-out: GI. In kind it is functional.
In a further assay the test system is COLO 205. The assay is described as follows: Growth inhibition of human COLO205 cells at 10 uM incubated for 48 hrs by sulforhodamine B assay relative to control. The settings on record: COLO 205, 48 h, read-out: GI. Format: functional.
A further assay has as its system HCT-116. The assay is described as follows: Growth inhibition of human HCT116 cells at 10 uM incubated for 48 hrs by sulforhodamine B assay relative to control. Format: functional. The following applies: HCT-116, 48 h, read-out: GI.
A further assay relates to HCT-15. The assay is described as follows: Growth inhibition of human HCT15 cells at 10 uM incubated for 48 hrs by sulforhodamine B assay relative to control. Format: functional. The settings on record: HCT-15, 48 h, read-out: GI.
Another assay has as its system HT-29. The assay can be described thus: Growth inhibition of human HT-29 cells at 10 uM incubated for 48 hrs by sulforhodamine B assay relative to control. The settings on record: HT-29, 48 h, read-out: GI. Format: functional.
Another assay concerns KM12. The assay is described as follows: Growth inhibition of human KM12 cells at 10 uM incubated for 48 hrs by sulforhodamine B assay relative to control. Format: functional. The following applies: KM12, 48 h, read-out: GI.
For the next assay, the system named is SW-620. The assay can be described thus: Growth inhibition of human SW620 cells at 10 uM incubated for 48 hrs by sulforhodamine B assay relative to control. The settings on record: SW-620, 48 h, read-out: GI. Format: functional.
Another assay relates to SF-295. The assay can be described thus: Growth inhibition of human SF295 cells at 10 uM incubated for 48 hrs by sulforhodamine B assay relative to control. The settings on record: SF-295, 48 h, read-out: GI. In kind it is functional.
In another assay the test system is SF-539. The assay is described as follows: Growth inhibition of human SF539 cells at 10 uM incubated for 48 hrs by sulforhodamine B assay relative to control. In kind it is functional. The following applies: SF-539, 48 h, read-out: GI.
A further assay has as its system M14. The assay is described as follows: Growth inhibition of human M14 cells at 10 uM incubated for 48 hrs by sulforhodamine B assay relative to control. In kind it is functional. The settings on record: M14, 48 h, read-out: GI.
A further assay relates to IGROV-1. The assay can be described thus: Growth inhibition of human IGROV1 cells at 10 uM incubated for 48 hrs by sulforhodamine B assay relative to control. In kind it is functional. The settings on record: IGROV-1, 48 h, read-out: GI.
In another assay the test system is 786-0. The assay can be described thus: Growth inhibition of human 786-0 cells at 10 uM incubated for 48 hrs by sulforhodamine B assay relative to control. Format: functional. The following applies: 786-0, 48 h, read-out: GI.
The next assay relates to A498. The assay can be described thus: Growth inhibition of human A498 cells at 10 uM incubated for 48 hrs by sulforhodamine B assay relative to control. In kind it is functional. The settings on record: A498, 48 h, read-out: GI.
The next assay has as its system TK-10. The assay can be described thus: Growth inhibition of human TK10 cells at 10 uM incubated for 48 hrs by sulforhodamine B assay relative to control. The settings on record: TK-10, 48 h, read-out: GI. Format: functional.
The subject of a further assay is UO-31. The assay can be described thus: Growth inhibition of human UO31 cells at 10 uM incubated for 48 hrs by sulforhodamine B assay relative to control. Format: functional. The following applies: UO-31, 48 h, read-out: GI.
A further assay has as its system HOP-92. The assay is described as follows: Growth inhibition of human HOP92 cells at 10 uM incubated for 48 hrs by sulforhodamine B assay relative to control. Format: functional. The following applies: HOP-92, 48 h, read-out: GI.
In a further assay the test system is SNB-75. The assay is described as follows: Growth inhibition of human SNB75 cells at 10 uM incubated for 48 hrs by sulforhodamine B assay relative to control. Format: functional. The settings on record: SNB-75, 48 h, read-out: GI.
The test system of another assay is RXF 393. The assay is described as follows: Growth inhibition of human RXF393 cells at 10 uM incubated for 48 hrs by sulforhodamine B assay relative to control. Format: functional. The following applies: RXF 393, 48 h, read-out: GI.
Another assay relates to Hs-578T. The assay can be described thus: Growth inhibition of human Hs578T cells at 10 uM incubated for 48 hrs by sulforhodamine B assay relative to control. Format: functional. The settings on record: read-out: GI.

One may read the IC50 as the concentration at which inhibition is half-maximal. Low values mean greater potency in that assay, high ones weaker potency in that assay.

Mast/stem cell growth factor receptor Kit, sequence (P10721 whole entry): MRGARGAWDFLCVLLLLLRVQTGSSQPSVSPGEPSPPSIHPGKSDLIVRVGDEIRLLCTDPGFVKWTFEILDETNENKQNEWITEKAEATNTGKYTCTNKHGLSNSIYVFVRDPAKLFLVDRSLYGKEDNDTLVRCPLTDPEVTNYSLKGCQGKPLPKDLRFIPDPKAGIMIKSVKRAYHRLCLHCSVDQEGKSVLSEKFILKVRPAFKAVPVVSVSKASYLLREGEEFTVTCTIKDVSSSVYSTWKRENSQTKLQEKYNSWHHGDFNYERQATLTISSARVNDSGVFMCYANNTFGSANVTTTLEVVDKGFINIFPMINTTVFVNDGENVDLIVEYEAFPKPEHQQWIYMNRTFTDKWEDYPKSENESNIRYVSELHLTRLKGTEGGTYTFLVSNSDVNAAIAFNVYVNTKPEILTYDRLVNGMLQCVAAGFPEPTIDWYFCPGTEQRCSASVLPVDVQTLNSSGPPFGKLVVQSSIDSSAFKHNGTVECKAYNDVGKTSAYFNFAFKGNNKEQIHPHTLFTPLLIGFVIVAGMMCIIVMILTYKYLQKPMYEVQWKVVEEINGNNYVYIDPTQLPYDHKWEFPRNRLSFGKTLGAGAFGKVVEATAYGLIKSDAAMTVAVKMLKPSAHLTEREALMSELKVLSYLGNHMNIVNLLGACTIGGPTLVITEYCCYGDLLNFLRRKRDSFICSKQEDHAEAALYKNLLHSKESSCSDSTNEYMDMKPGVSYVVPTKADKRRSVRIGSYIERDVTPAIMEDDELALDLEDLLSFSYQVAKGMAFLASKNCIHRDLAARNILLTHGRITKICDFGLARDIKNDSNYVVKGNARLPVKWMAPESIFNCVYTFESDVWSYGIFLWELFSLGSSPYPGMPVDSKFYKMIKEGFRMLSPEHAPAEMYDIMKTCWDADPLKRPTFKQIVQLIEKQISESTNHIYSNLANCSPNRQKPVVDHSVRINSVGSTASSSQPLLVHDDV
Serine/threonine-protein kinase B-raf, sequence (P15056 whole entry): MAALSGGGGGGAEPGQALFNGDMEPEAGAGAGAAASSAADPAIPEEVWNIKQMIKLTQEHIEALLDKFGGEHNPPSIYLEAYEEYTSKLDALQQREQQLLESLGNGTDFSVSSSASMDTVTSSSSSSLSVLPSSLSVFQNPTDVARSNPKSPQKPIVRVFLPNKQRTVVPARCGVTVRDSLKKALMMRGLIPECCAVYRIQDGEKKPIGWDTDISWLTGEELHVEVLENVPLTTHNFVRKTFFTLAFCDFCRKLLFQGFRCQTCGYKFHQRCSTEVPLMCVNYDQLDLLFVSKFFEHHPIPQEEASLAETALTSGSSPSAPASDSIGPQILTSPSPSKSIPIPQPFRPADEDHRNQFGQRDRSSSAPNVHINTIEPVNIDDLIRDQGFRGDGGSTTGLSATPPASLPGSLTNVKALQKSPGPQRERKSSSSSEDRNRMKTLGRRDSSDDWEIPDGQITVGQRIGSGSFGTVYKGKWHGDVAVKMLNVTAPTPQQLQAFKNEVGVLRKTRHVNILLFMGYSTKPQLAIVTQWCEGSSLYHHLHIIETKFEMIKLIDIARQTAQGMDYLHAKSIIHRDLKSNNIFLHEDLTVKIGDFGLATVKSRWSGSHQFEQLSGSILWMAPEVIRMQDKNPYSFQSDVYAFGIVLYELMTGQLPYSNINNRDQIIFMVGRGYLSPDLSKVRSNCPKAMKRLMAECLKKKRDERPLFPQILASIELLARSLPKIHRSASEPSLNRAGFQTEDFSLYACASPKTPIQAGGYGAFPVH

In the case of `CCOC(=O)c1ccc(Nc2ccnc(SCC(=O)c3ccc(C#N)cc3)n2)cc1`, the IC50 amounted to 150 nM in assay [1] and 5160 nM in [2]. For the same molecule, the inhibition of growth at 10 µM worked out at 24% in the assay on HL-60(TB); 49% in the assay on K562; 84% with MOLT-4; 46% in the assay with SR; 39% in the assay on A549; 37% in the assay on HOP-62. The inhibition of growth at 10 µM with NCI-H23 was found to be 20%; in the assay with COLO 205 it was 29%; with HCT-116, 28%; with HCT-15, 24%; in the assay on HT-29, 24%; in the assay with KM12 it was 45%. In addition, the inhibition of growth at 10 µM turned out to be 10% in the assay on SW-620; 24% in the assay with SF-295; 17% with SF-539; 49% in the assay with M14; 21% in the assay with IGROV-1; 22% with 786-0. Also, the inhibition of growth at 10 µM in the assay with A498 is 50%; in the assay with TK-10, 10%; in the assay on UO-31, 52%.
For `O=C(CSc1nccc(Nc2ccc(N3CCOCC3)cc2)n1)c1ccc(F)cc1`, the half-maximal inhibitory concentration (IC50) turned out to be 110 nM in [1] and 250 nM in assay [2]. Moreover, the inhibition of growth at 10 µM with K562 is 28%; in the assay on MOLT-4 it was 25%; with SR it was 18%; in the assay with HOP-62 it was 69%; in the assay on HOP-92 it was 26%; in the assay on NCI-H23 it was 21%. Further, the inhibition of growth at 10 µM in the assay with HCT-116 stood at 32%; in the assay with SNB-75, 65%; in the assay with 786-0, 13%; with A498 it was 36%; with RXF 393, 43%; in the assay with UO-31, 27%. Besides, the inhibition of growth at 10 µM with Hs-578T worked out at 39%.
